# Counter-ions that a name gives are not always drawn. Like-named read-outs stand apart in the source and are kept apart here.
# How the values were obtained:
# [1] = system: insecticide-susceptible Drosophila melanogaster (Canton-S strain); format: in vivo
# Procedure: The insecticide-susceptible Canton-S strain of Drosophila was obtained from the Bloomington Drosophila stock center (Indiana University, Bloomington, Ind.), and used exclusively in all studies. Flies were reared in 100-ml vials capped with acetate plugs (Fisher Scientific; Suwannee, Ga.) on a JAZZ-MIX diet (Fisher) prepared with a 2:1 ratio of water to apple juice. Flies were reared on a 12:12 photocycle at 24° C. and ambient relative humidity. Mixed-sex adults, less than 1-wk old, were used in bioassays.
# Flies were briefly anesthetized in rearing vials with a pulse of CO2 and transferred to a CO2 flowbed (Genesee Scientific; San Diego, Calif.). Using a camel hair brush and a 5×5 cm sheet of rice paper, ten flies were placed into 7.0 ml dram vials. Prior to adding flies, each vial received a 0.5 cm^3 block of rearing diet that had been sufficiently dried on a paper towel to remove excessive moisture. The vials were then capped with open-top septum caps (Fisher) that were covered with fine mesh. The mesh was applied to the septum caps in advance using hot glue; it prevented fly escape but readily permitted gas exchange. The flies were allowed 1-hr to recover from the CO2 anesthesia. After one hour, single vials with flies were placed into 0.5 L glass jars, along with a filter paper tent (see FIG. 1). In a fume hood, filter paper tents were treated with insecticide dilutions or acetone for controls. The jars were then rapidly closed tightly with a metal lid. After 24 hours of exposure, mortality was scored with the aid of a magnifying glass.
# All test compounds and solvents were >99% purity, and were purchased from Sigma-Aldrich Chemical (Milwaukee, Wis.). See Table 1 for a listing of the test compounds and their structures. Insecticide stock solutions were prepared at a standard concentration of 100 μg/μl in analytical grade acetone. For liquid insecticidal compounds, density in mg/μl was used to calculate weight on a per-volume basis. Stock solutions were held at −20° C. in sealed amber vials. In bioassay jars, filter paper tents were treated with stock volumes ranging from 2 to 20 μl, depending on the inherent toxicity of the test compound. These volumes of insecticide stock provided test concentrations of 200 to 2000 μg insecticide per replicate jar. A range of 4-5 concentrations plus a control were tested for each insecticide, and each range was repeated five times over at least three days. Controls received a volume of acetone identical to the highest insecticide volume that was tested (i.e., 10 μl for menthofuran; 20 μl for all other insecticides). Between uses, bioassay jars and lids were washed in a dishwasher, then baked 12-16 hr at 90° C. in a drying oven.
# Probit and regression analyses were performed using the PROC PROBIT and PROC REG procedures, respectively. […] If control mortality ever exceeded 10% in a given replicate, that replicate was discarded.
# (§1) Four Drosophila strains were used, all obtained from the Bloomington Drosophila Stock Center (Indiana University; Bloomington, Ind.). The Canton-S strain was used as the insecticide-susceptible standard. The Hikone-R strain is metabolically-resistant with elevated cytochrome P450 levels (Waters et al., 1984; Sundseth et al., 1989; Le Goff et al., 2003; Festucci-Buselli et al., 2005). Hikone-R is resistant to a number of insecticides, including malathion, DDT and neonicotinoids (Sundseth et al., 1989; Daborn et al., 2001). Two resistant neurological-mutant strains were also tested. […] Flies were reared in 100-ml vials capped with acetate plugs (Fisher Scientific; Suwanee, Ga.) on a commercial diet (JAZZ-MIX; Fisher Scientific). Flies were reared on a 12:12 photocycle at 24° C. and 60% relative humidity. Mixed-sex adults, less than 1-wk old, were used in bioassays.
# [2] = system: metabolically-resistant Hikone-R strain of Drosophila (elevated cytochrome P450); format: in vivo; conditions: for Slope ± Std. Error (probit mortality line): Hikone-R, 24 hr
# Procedure: Four Drosophila strains were used, all obtained from the Bloomington Drosophila Stock Center (Indiana University; Bloomington, Ind.). The Canton-S strain was used as the insecticide-susceptible standard. […] Two resistant neurological-mutant strains were also tested. […] Flies were reared in 100-ml vials capped with acetate plugs (Fisher Scientific; Suwanee, Ga.) on a commercial diet (JAZZ-MIX; Fisher Scientific). […] Mixed-sex adults, less than 1-wk old, were used in bioassays.
# All volatile insecticide stocks were prepared at 100 μg/μl in analytical grade acetone. Rather than weigh the highly volatile liquid insecticides (i.e., all compounds except benzothiophene), weight was determined based on the density-volume relationship of each compound. […] The insecticide synergists PBO (piperonyl butoxide) and DEF (SSS-tributyl-phosphoro-trithioate) were obtained from Fluka Chemical Co. (Basel, Switzerland) and Mobay Chemical Co. (Kansas City, Mo.). […] Synergist stocks were prepared at 100 μg/ml in analytical grade acetone.
# Briefly, bioassays took place in 0.5-l glass jars with metal lids. Mixed-sex flies were isolated from lab colonies and placed in 4-ml dram vials in groups of ten, along with a dried piece of laboratory diet. The dram vials were capped with open-top septum caps that were covered with fine mesh (held in place by non-toxic glue). For bioassays, the assembled dram vials were placed into the 0.5-l jars along with a folded filter paper “tent” (Whatman #1; Vineland, N.J.). The filter paper was treated with either an insecticide dilution or acetone, the jar was sealed with the metal lid, and the bioassay proceeded for 24-hr at room temperature. Mortality was scored based on a complete lack of movement by the flies. Four concentrations plus an acetone control were tested for all insecticides. Between five and ten replicates were performed for each concentration range on each strain-insecticide combination. Synergist bioassays were performed with a slight modification. Synergist stocks were applied to dram vials at 100 μl per vial to provide assay concentrations of 10 μg per vial. […] After treatment, vials were held at an angle in a fume hood and rotated ¼-turn each minute until the acetone evaporated. Flies and diet were added as above and held for 1-hr. Assays were initiated, run, and scored as above.
# Probit analysis was performed using PROC PROBIT in the SAS software package (SAS Institute; Cary, N.C.). If control mortality ever exceeded 10% in a given replicate, that replicate was discarded.
# [3] = system: Rd1 (Rdl-R) strain of Drosophila (GABA-gated chloride channel point mutation); format: in vivo, Drosophila melanogaster
# From the text: as §1
# All experimental materials were purchased from Sigma-Aldrich-Fluka (Milwaukee, Wis.) and were of 99% purity or greater. […] All volatile insecticide stocks were prepared at 100 μg/μl in analytical grade acetone. Rather than weigh the highly volatile liquid insecticides (i.e., all compounds except benzothiophene), weight was determined based on the density-volume relationship of each compound. Four serial dilutions were prepared and tested for each insecticide as described previously (Scharf et al., 2006). The insecticide synergists PBO (piperonyl butoxide) and DEF (SSS-tributyl-phosphoro-trithioate) were obtained from Fluka Chemical Co. (Basel, Switzerland) and Mobay Chemical Co. (Kansas City, Mo.). Both synergists were >95% purity. Synergist stocks were prepared at 100 μg/ml in analytical grade acetone.
# Volatility bioassays were conducted exactly as described in a previous report (Scharf et al., 2006). Briefly, bioassays took place in 0.5-l glass jars with metal lids. Mixed-sex flies were isolated from lab colonies and placed in 4-ml dram vials in groups of ten, along with a dried piece of laboratory diet. The dram vials were capped with open-top septum caps that were covered with fine mesh (held in place by non-toxic glue). For bioassays, the assembled dram vials were placed into the 0.5-l jars along with a folded filter paper “tent” (Whatman #1; Vineland, N.J.). The filter paper was treated with either an insecticide dilution or acetone, the jar was sealed with the metal lid, and the bioassay proceeded for 24-hr at room temperature. Mortality was scored based on a complete lack of movement by the flies. Four concentrations plus an acetone control were tested for all insecticides. Between five and ten replicates were performed for each concentration range on each strain-insecticide combination. Synergist bioassays were performed with a slight modification. Synergist stocks were applied to dram vials at 100 μl per vial to provide assay concentrations of 10 μg per vial. […] After treatment, vials were held at an angle in a fume hood and rotated ¼-turn each minute until the acetone evaporated. Flies and diet were added as above and held for 1-hr. Assays were initiated, run, and scored as above.
# Probit analysis was performed using PROC PROBIT in the SAS software package (SAS Institute; Cary, N.C.). If control mortality ever exceeded 10% in a given replicate, that replicate was discarded. Toxicity and synergist ratios at LC50 were compared statistically using the calculation described by Robertson and Preisler (1992). Using this procedure, ratios with 95% confidence intervals were calculated using a spreadsheet-based program. With this calculation, if confidence intervals include 1.0 then ratios are considered non-significant (p>0.05; Robertson and Preisler, 1992).
# [4] = solvent carriers tested alone under optimized bioassay conditions
# [5] = significance at p<0.05, method of Robertson and Preisler
compound,measurement,setting,value
"CCCCCOC(C)=O [PENTYL acetate, pentyl acetate]",LC50 (95% CL),[1]; in vivo,1792.0 (1658.0 − 1987.0) μg/jar
"CCOC(C)=O [ETHYL acetate, ethyl acetate]",LC50 (95% CL),[1]; in vivo,3530.0 (2488.0 − 12723.0) μg/jar
"CCCOC(=O)CCC [PROPYL butyrate, propyl butyrate]",LC50 (95% CL),[1]; in vivo,2035.0 (ND) μg/jar
"CCCCOC(=O)CC [BUTYL propionate, butyl propionate]",LC50 (95% CL),[1]; in vivo,2126.0 (1894.0 − 2670.0) μg/jar
"CCCCC(=O)OC [METHYL valerate, methyl valerate]",LC50 (95% CL),[1]; in vivo,2209.0 (1897.0 − 2997.0) μg/jar
"CC(=O)OC(C)C [ISO-PROPYL acetate, iso-propyl acetate]",LC50 (95% CL),[1]; in vivo,1611.0 (1458.0 − 1782.0) μg/jar
"COP(=O)(OC)OC=C(Cl)Cl [Dichlorvos (DDVP), Dichlorvos, reference compound]",Slope ± Std. Error (probit mortality line),[2]; Table 2,4.64 ± 0.59
"CCCOC(=O)CC [PROPYL propionate, propyl propionate]",LC50 (95% CL),[1]; in vivo,1931.0 (ND) μg/jar
"CCCOC(C)=O [PROPYL acetate, propyl acetate]",LC50 (95% CL),[1]; in vivo,2056.0 (ND) μg/jar
"c1ccc2[nH]ccc2c1 [INDOLE, indole]",LC50 (95% CL),[1]; in vivo,2769.0 (2137.0 − 7873.0) μg/jar
C[S+](C)[O-] [DMSO],mortality elicited by solvent carrier,[1]; [4],No mortality
Cc1oc2ccccc2c1C,LC50 (95% CL),[1]; in vivo,1960.0 (1543.0 − 2452.0) μg/jar
CC(C)=O [acetone],mortality elicited by solvent carrier,[1]; [4],No mortality
"CCCCCCCOC=O [Heptyl Formate, heptyl formate]",LC50,[2]; in vivo,1483.0 μg insecticide per 0.5 liter of headspace
same,"response of Hikone-R relative to Canton-S (LC50 ratio Hikone÷Canton, FIG. 5), in words",[2]; in vivo,non-significant tolerance
same,LC50,[3]; in vivo,1656.6 μg insecticide per 0.5 liter of headspace
same,"response of Rd1 relative to Canton-S (LC50 ratio, FIG. 7A), in words",[3]; [5],non-significant tolerance
"CC(=O)OC(C)(C)C [t-BUTYL acetate, t-butyl acetate]",LC50 (95% CL),[1]; in vivo,2134.0 (1943.0 − 2598.0) μg/jar
"CCCC(=O)OCC [ETHYL butyrate, ethyl butyrate]",LC50 (95% CL),[1]; in vivo,2034.0 (ND) μg/jar
"CCCC(=O)OC [METHYL butyrate, methyl butyrate]",LC50 (95% CL),[1]; in vivo,2026.0 (1872.0 − 2314.0) μg/jar
"CCCCCCOC(C)=O [HEXYL acetate, hexyl acetate]",LC50 (95% CL),[1]; in vivo,1666.0 (1582.0 − 1755.0) μg/jar
"CCOC(=O)CC [ETHYL propionate, ethyl propionate]",LC50 (95% CL),[1]; in vivo,3395.0 (2439.0 − 9039.0) μg/jar
CO [methanol],mortality elicited by solvent carrier,[1]; [4],No mortality
"O=CO [Formic Acid, reference compound]",Slope ± Std. Error (probit mortality line),[2]; Table 2,3.29 ± 1.02
CC(C)O [isopropanol],mortality elicited by solvent carrier,[1]; [4],100%
"CCC(=O)OC [METHYL propionate, methyl propionate]",LC50 (95% CL),[1]; in vivo,2391.0 (2076.0 − 3433.0) μg/jar
"CCCCC(=O)OCC [ETHYL valerate, ethyl valerate]",LC50 (95% CL),[1]; in vivo,2092.0 (1837.0 − 2670.0) μg/jar
methyl acetate,Slope ± Std. Error (best-fit probit mortality line),"[1]; Table 1, Canton-S, 24 hr exposure, probit analysis",2.86 ± 0.91
same,LC50 (95% CL),[1]; in vivo,2268.0 (ND) μg/jar
CCO [ethanol],mortality elicited by solvent carrier,[1]; in vivo,No mortality
"CCCCOC(C)=O [n-BUTYL acetate, n-butyl acetate]",LC50 (95% CL),[1]; in vivo,1821.0 (1730.0 − 1930.0) μg/jar
"CN=C=S [Methylisothiocyanate (MITC), Methylisothiocyanate, reference compound]",Slope ± Std. Error (probit mortality line),[2]; Table 2,4.30 ± 0.62
same,"response of Hikone-R relative to Canton-S (LC50 ratio Hikone÷Canton, FIG. 5), in words",[2]; [5],significantly enhanced susceptibility
CCCCCC [hexane],mortality elicited by solvent carrier,[1]; in vivo,No mortality
"O=COCCOC=O [EGDF, ethylene glycol di-formate]",Slope ± Std. Error (probit mortality line),[2]; Table 2,5.02 ± 2.41
same,Slope ± Std. Error (probit mortality line),"[2]; Table 3, no synergist",5.02 ± 2.41
same,"response of Hikone-R relative to Canton-S (LC50 ratio Hikone÷Canton, FIG. 5), in words",[2]; [5],significant resistance
same,knockdown,"[1]; Canton-S, by 2-hr, lasting through 24-hr, in all bioassay replicates",100%
COCCO [methyl cellosolve],mortality elicited by solvent carrier,[1]; [4],No mortality
